Measurements taken from ChEMBL document CHEMBL1926560, “Synthesis, biological evaluation and molecular docking studies of resveratrol derivatives possessing curcumin moiety as potent antitubulin agents” (Bioorg Med Chem, 2012).
≈ marks a conversion by molar mass, not a printed value.

How the values were obtained:
[1] = Inhibition of bovine brain tubulin polymerization after 20 mins by turbidimetry; set-up: species or system Bos taurus
[2] = tested on: B16-F10; assay: Antiproliferative activity against mouse B16F10 cells after 48 hrs by MTT assay; type: functional, cell-based; settings: B16-F10, 48 h
[3] = tested on: A549; assay: Antiproliferative activity against human A549 cells after 48 hrs by MTT assay; type: functional, cell-based; settings: A549, 48 h
[4] = tested on: HepG2; assay: Antiproliferative activity against human HepG2 cells after 48 hrs by MTT assay; type: functional, cell-based; settings: HepG2, 48 h
[5] = tested on: B16-F10; assay: Cell cycle arrest in mouse B16F10 cells assessed as accumulation at G2/M phase at 1 ug/ml after 24 hrs using propidium iodide staining by flow cytometry (reference value: 18 %); type: functional
[6] = tested on: B16-F10; assay: Ratio of resveratrol IC50 to compound IC50 for mouse B16F10 cells; type: functional
[7] = tested on: B16-F10; assay: Cell cycle arrest in mouse B16F10 cells assessed as accumulation at Go/G1 phase at 1 ug/ml after 24 hrs using propidium iodide staining by flow cytometry (reference value: 68 %); type: functional
[8] = tested on: B16-F10; assay: Cell cycle arrest in mouse B16F10 cells assessed as accumulation at S phase at 1 ug/ml after 24 hrs using propidium iodide staining by flow cytometry (reference value: 12 %); type: functional

Compound	IC50 [1]	IC50 [2]	IC50 [3]	IC50 [4]	Activity [5]	Ratio IC50 [6]	Activity [7]	Activity [8]
COc1ccc(/C=C/c2cc(OC)cc(OC)c2/C=C/C(=O)/C=C/c2ccccc2)cc1	6.28 µg/mL (≈ 14.7 µM)	2.66 µg/mL (≈ 6.24 µM)	5.25 µg/mL (≈ 12.3 µM)	4.79 µg/mL (≈ 11.2 µM)	–	–	–	–
COc1ccc(/C=C/c2cc(OC)cc(OC)c2/C=C/C(=O)/C=C/c2ccccc2OC)cc1	5.99 µg/mL (≈ 13.1 µM)	2.13 µg/mL (≈ 4.67 µM)	6.49 µg/mL (≈ 14.2 µM)	5.82 µg/mL (≈ 12.7 µM)	–	–	–	–
COc1ccc(/C=C/c2cc(OC)cc(OC)c2/C=C/C(=O)/C=C/c2cccc(OC)c2)cc1	8.05 µg/mL (≈ 17.6 µM)	2.72 µg/mL (≈ 5.96 µM)	7.66 µg/mL (≈ 16.8 µM)	8.52 µg/mL (≈ 18.7 µM)	–	–	–	–
COc1ccc(/C=C/C(=O)/C=C/c2c(/C=C/c3ccc(OC)cc3)cc(OC)cc2OC)cc1	2.89 µg/mL (≈ 6.33 µM)	2.4 µg/mL (≈ 5.26 µM)	7.65 µg/mL (≈ 16.8 µM)	6.99 µg/mL (≈ 15.3 µM)	–	–	–	–
COc1ccc(/C=C/c2cc(OC)cc(OC)c2/C=C/C(=O)/C=C/c2cc(OC)cc(OC)c2)cc1	1.45 µg/mL (≈ 2.98 µM)	0.71 µg/mL (≈ 1.46 µM)	2.1 µg/mL (≈ 4.32 µM)	1.6 µg/mL (≈ 3.29 µM)	52%	50	28%	14%
COc1ccc(/C=C/c2cc(OC)cc(OC)c2/C=C/C(=O)/C=C/c2cc(OC)ccc2OC)cc1	2.11 µg/mL (≈ 4.34 µM)	1.3 µg/mL (≈ 2.67 µM)	4.09 µg/mL (≈ 8.41 µM)	2.78 µg/mL (≈ 5.71 µM)	–	–	–	–
COc1ccc(/C=C/c2cc(OC)cc(OC)c2/C=C/C(=O)/C=C/c2cccc(C)c2)cc1	3.08 µg/mL (≈ 6.99 µM)	1.67 µg/mL (≈ 3.79 µM)	4.08 µg/mL (≈ 9.26 µM)	4.58 µg/mL (≈ 10.4 µM)	–	–	–	–
COc1ccc(/C=C/c2cc(OC)cc(OC)c2/C=C/C(=O)/C=C/c2ccc(C)cc2)cc1	2.68 µg/mL (≈ 6.08 µM)	1.08 µg/mL (≈ 2.45 µM)	2.69 µg/mL (≈ 6.11 µM)	2.37 µg/mL (≈ 5.38 µM)	–	–	–	–
COc1ccc(/C=C/c2cc(OC)cc(OC)c2/C=C/C(=O)/C=C/c2ccc(C)c(C)c2)cc1	3.57 µg/mL (≈ 7.85 µM)	1.57 µg/mL (≈ 3.45 µM)	5.33 µg/mL (≈ 11.7 µM)	4.12 µg/mL (≈ 9.06 µM)	–	–	–	–
COc1ccc(/C=C/c2cc(OC)cc(OC)c2/C=C/C(=O)/C=C/c2ccccc2F)cc1	–	2.51 µg/mL (≈ 5.65 µM)	8.01 µg/mL (≈ 18 µM)	4.85 µg/mL (≈ 10.9 µM)	–	–	–	–
COc1ccc(/C=C/c2cc(OC)cc(OC)c2/C=C/C(=O)/C=C/c2ccccc2Cl)cc1	–	5.94 µg/mL (≈ 12.9 µM)	15.2 µg/mL (≈ 33 µM)	12.4 µg/mL (≈ 27 µM)	–	–	–	–
COc1ccc(/C=C/c2cc(OC)cc(OC)c2/C=C/C(=O)/C=C/c2ccccc2Br)cc1	–	3.09 µg/mL (≈ 6.11 µM)	9.37 µg/mL (≈ 18.5 µM)	10.2 µg/mL (≈ 20.3 µM)	–	–	–	–
COc1ccc(/C=C/c2cc(OC)cc(OC)c2/C=C/C(=O)/C=C/c2cccc(F)c2)cc1	–	1.67 µg/mL (≈ 3.76 µM)	4.47 µg/mL (≈ 10.1 µM)	2.65 µg/mL (≈ 5.96 µM)	–	–	–	–
COc1ccc(/C=C/c2cc(OC)cc(OC)c2/C=C/C(=O)/C=C/c2cccc(Cl)c2)cc1	–	2.99 µg/mL (≈ 6.49 µM)	8.23 µg/mL (≈ 17.9 µM)	6.94 µg/mL (≈ 15.1 µM)	–	–	–	–
COc1ccc(/C=C/c2cc(OC)cc(OC)c2/C=C/C(=O)/C=C/c2cccc(Br)c2)cc1	–	1.97 µg/mL (≈ 3.9 µM)	4.75 µg/mL (≈ 9.4 µM)	5.52 µg/mL (≈ 10.9 µM)	–	–	–	–
COc1ccc(/C=C/c2cc(OC)cc(OC)c2/C=C/C(=O)/C=C/c2ccc(F)cc2)cc1	–	1.81 µg/mL (≈ 4.07 µM)	5.83 µg/mL (≈ 13.1 µM)	4.35 µg/mL (≈ 9.79 µM)	–	–	–	–
COc1ccc(/C=C/c2cc(OC)cc(OC)c2/C=C/C(=O)/C=C/c2ccc(Cl)cc2)cc1	–	3.17 µg/mL (≈ 6.88 µM)	11.2 µg/mL (≈ 24.2 µM)	8.29 µg/mL (≈ 18 µM)	–	–	–	–
COc1ccc(/C=C/c2cc(OC)cc(OC)c2/C=C/C(=O)/C=C/c2ccc(Br)cc2)cc1	–	2.44 µg/mL (≈ 4.83 µM)	7.89 µg/mL (≈ 15.6 µM)	7.75 µg/mL (≈ 15.3 µM)	–	–	–	–

Compound	IC50 [1]	IC50 [2]	IC50 [3]	IC50 [4]	Activity [5]	Ratio IC50 [6]	Activity [7]	Activity [8]
COc1ccc(/C=C/c2cc(OC)cc(OC)c2/C=C/C(=O)/C=C/c2ccc(Cl)cc2Cl)cc1	–	2.11 µg/mL (≈ 4.26 µM)	5.05 µg/mL (≈ 10.2 µM)	4.67 µg/mL (≈ 9.43 µM)	–	–	–	–
COc1ccc(/C=C/c2cc(OC)cc(OC)c2/C=C/C(=O)/C=C/c2ccc(Cl)c(Cl)c2)cc1	–	2.73 µg/mL (≈ 5.51 µM)	6.99 µg/mL (≈ 14.1 µM)	9.49 µg/mL (≈ 19.2 µM)	–	–	–	–
COc1ccc(/C=C/c2cc(OC)cc(OC)c2/C=C/C(=O)/C=C/c2cc(Cl)cc(Cl)c2)cc1	–	2.08 µg/mL (≈ 4.2 µM)	6.18 µg/mL (≈ 12.5 µM)	3.28 µg/mL (≈ 6.62 µM)	–	–	–	–
COc1ccc(/C=C/c2cc(OC)cc(OC)c2/C=C/C(=O)/C=C/c2c(Cl)cccc2Cl)cc1	–	3.07 µg/mL (≈ 6.2 µM)	8.93 µg/mL (≈ 18 µM)	9.31 µg/mL (≈ 18.8 µM)	–	–	–	–
COc1ccc(/C=C/c2cc(OC)cc(OC)c2/C=C/C(=O)/C=C/c2ccc(F)c(Cl)c2)cc1	–	1.79 µg/mL (≈ 3.74 µM)	4.65 µg/mL (≈ 9.71 µM)	9.07 µg/mL (≈ 18.9 µM)	–	–	–	–
COc1ccc(/C=C/c2cc(OC)cc(OC)c2/C=C/C(=O)/C=C/c2ccc(F)c(F)c2)cc1	–	2.23 µg/mL (≈ 4.82 µM)	6.23 µg/mL (≈ 13.5 µM)	5.97 µg/mL (≈ 12.9 µM)	–	–	–	–
COc1ccc(/C=C/c2cc(OC)cc(OC)c2/C=C/C(=O)/C=C/c2cccc(F)c2C)cc1	–	1.8 µg/mL (≈ 3.93 µM)	3.98 µg/mL (≈ 8.68 µM)	2.74 µg/mL (≈ 5.98 µM)	–	–	–	–
COc1ccc(/C=C/c2cc(OC)cc(OC)c2/C=C/C(=O)/C=C/c2cc(F)ccc2C)cc1	1.81 µg/mL (≈ 3.95 µM)	0.75 µg/mL (≈ 1.64 µM)	2.32 µg/mL (≈ 5.06 µM)	1.96 µg/mL (≈ 4.27 µM)	–	–	–	–
COc1ccc(/C=C/c2cc(OC)cc(OC)c2/C=C/C(=O)/C=C/c2cccc(C(F)(F)F)c2)cc1	–	3.1 µg/mL (≈ 6.27 µM)	4.97 µg/mL (≈ 10.1 µM)	5.38 µg/mL (≈ 10.9 µM)	–	–	–	–
COc1ccc(/C=C/c2cc(OC)cc(OC)c2/C=C/C(=O)/C=C/c2cc(C(F)(F)F)ccc2Cl)cc1	–	1.85 µg/mL (≈ 3.5 µM)	5.96 µg/mL (≈ 11.3 µM)	6.79 µg/mL (≈ 12.8 µM)	–	–	–	–
COc1ccc(/C=C/c2cc(OC)cc(OC)c2/C=C/C(=O)/C=C/c2ccccc2[N+](=O)[O-])cc1	–	3.43 µg/mL (≈ 7.27 µM)	11.7 µg/mL (≈ 24.7 µM)	6.75 µg/mL (≈ 14.3 µM)	–	–	–	–
COc1ccc(/C=C/c2cc(OC)cc(OC)c2/C=C/C(=O)/C=C/c2cccc([N+](=O)[O-])c2)cc1	–	1.47 µg/mL (≈ 3.12 µM)	3.09 µg/mL (≈ 6.55 µM)	2.44 µg/mL (≈ 5.17 µM)	–	–	–	–
COc1ccc(/C=C/c2cc(OC)cc(OC)c2/C=C/C(=O)/C=C/c2ccc([N+](=O)[O-])cc2)cc1	–	2.35 µg/mL (≈ 4.98 µM)	6.69 µg/mL (≈ 14.2 µM)	6.95 µg/mL (≈ 14.7 µM)	–	–	–	–
COc1ccc(/C=C/c2cc(OC)cc(OC)c2/C=C/C(=O)/C=C/c2ccc(C(C)C)cc2)cc1	–	2.24 µg/mL (≈ 4.78 µM)	6.06 µg/mL (≈ 12.9 µM)	4.43 µg/mL (≈ 9.45 µM)	–	–	–	–
COc1ccc(/C=C/c2cc(OC)cc(OC)c2/C=C/C(=O)/C=C/c2ccccn2)cc1	–	3.12 µg/mL (≈ 7.3 µM)	9.16 µg/mL (≈ 21.4 µM)	9.17 µg/mL (≈ 21.5 µM)	–	–	–	–
COc1ccc(/C=C/c2cc(OC)cc(OC)c2/C=C/C(=O)/C=C/c2cccnc2)cc1	–	1.48 µg/mL (≈ 3.46 µM)	3.48 µg/mL (≈ 8.14 µM)	3.5 µg/mL (≈ 8.19 µM)	–	–	–	–
COc1ccc(/C=C/c2cc(OC)cc(OC)c2/C=C/C(C)=O)cc1	–	2.88 µg/mL (≈ 8.51 µM)	6.97 µg/mL (≈ 20.6 µM)	8.41 µg/mL (≈ 24.9 µM)	–	–	–	–
COc1cc2c(c(OC)c1OC)-c1ccc(OC)c(=O)cc1[C@@H](NC(C)=O)CC2 [COLCHICINE]	–	–	–	–	85%	–	2%	3%
